Patent publication US6410551B1, “Tetrazole derivatives” (Byk Gulden Lomberg Chemische Fabrik GmbH, priority 1997, dated 2002)

Experiments:
PDE 4 = assay: Inhibition of PDE 4 activity (method of Bauer and Schwabe, adapted to microtiter plates); format: biochemical; conditions: inhibitory concentration as -log IC50 (mol/l)
Method: 1. Inhibition of PDE 4 Activity
The activity test was carried out by the method of Bauer and Schwabe, which was adapted to microtiter plates (Naunyn-Schmiedeberg's Arch. Pharmacol. 1980, 311, 193-198). In this connection, the PDE reaction is carried out in the first step. In a second step, the resultant 5′-nucleotide is cleaved to give the uncharged nucleoside by a 5′-nucleotidase of the snake venom from Crotalus atrox. In the third step, the nucleoside is separated from the remaining charged substrate on ion exchange columns. The columns are eluted with 2 ml of 30 mM ammonium formate (pH 6.0) directly into minivials to which 2 ml of scintilation fluid is additionally added for counting.

melting point: 167 to 170 °C
SMILES: CCOc1cc2c(cc1OC)C(c1ccc(-c3nnn(CC)n3)cc1)=N[C@H]1CCCC[C@@H]21 (racemic) [Compound 2, (+/−)-cis-9-Ethoxy-8-methoxy-6-[4-(2ethyl-2H-tetrazol-5-yl)phenyl]-1,2,3,4,4a,10b-hexahydrophenanthridine]
Inhibition of the PDE 4 activity, −log IC50 (PDE 4): 8.78
